Earlier results, collected in patent US8323615B2, “Methods of processing multi-phasic dispersions” (Baxter International Inc., priority 2008, dated 2012).
Counter-ions that a name gives are not always drawn. Like-named read-outs stand apart in the source and are kept apart here.

Columns and labels:
[1] = ambient temperature such as 20-25° C.
[2] = system: rats; conditions: for LD50, cells marked "I": value followed by undefined mark "I"
[3] = rats, oral, all at once (acute toxicity), minimal amount reported in the literature

In the case of `CC(Cl)(Cl)Cl` [1,1,1-trichloroethane], the “Sol. (solubility of water in the liquid)” value ([1]; unit not given) is listed as 0.15 g/100 g, the “Sol. (solubility of water in the liquid)” value ([1]; parts per million by weight) is listed as 170 ppm and the LD50 [2, 3] is listed as 9.6 g/kg body weight. For the same molecule, the LD50 ([2]; rats, oral, all at once (acute toxicity), minimal amount reported in the literature, listed as 1,1,1-TCA) was 16 g/kg body weight.
For `ClC=C(Cl)Cl` [1,1,2-trichloroethylene], the “Sol. (solubility of water in the liquid)” value ([1]; unit not given) is given as 0.11 g/100 g and the LD50 [2, 3] is given as 2.4 g/kg body weight.
For `FC(F)(Cl)C(F)(F)Cl` [1,2-dichlorotetrafluoroethane], the “Sol. (solubility of water in the liquid)” value ([1]; unit not given) is given as 0.13 g/100 g and the LD50 [2, 3] is given as 2.25 g/kg body weight.
In the case of `OCC(F)(F)F` [2,2,2-trifluoroethanol], the LD50 [2, 3] is listed as 0.24 g/kg body weight.
For `C[S+](C)[O-]` [DMSO, dimethylsulfoxide], the LD50 [2, 3] is listed as 18 g/kg body weight.
In the case of `FC(F)(F)C(F)(F)C(F)(F)C(F)(F)N(C(F)(F)C(F)(F)C(F)(F)C(F)(F)F)C(F)(F)C(F)(F)C(F)(F)C(F)(F)F` [Fluorinert ® FC-43, perfluorotributylamine], the “Sol. (solubility of water in the liquid)” value ([1]; parts per million by weight) is listed as 7 ppm and the LD50 [2, 3] is listed as 10 g/kg body weight.
In the case of `FC(F)(F)C(F)(F)C(F)(F)C(F)(F)C(F)(F)N(C(F)(F)C(F)(F)C(F)(F)C(F)(F)C(F)(F)F)C(F)(F)C(F)(F)C(F)(F)C(F)(F)C(F)(F)F` [Fluorinert ® FC-70, perfluorotriamylamine], the “Sol. (solubility of water in the liquid)” value ([1]; parts per million by weight) is listed as 8 ppm and the LD50 [2, 3] is listed as “NTO”.
In the case of `NC=O` [Formamide], the LD50 [2, 3] is listed as 5.5 g/kg body weight.
For `O=Cc1ccco1` [Furfural], the LD50 ([2]; rat, in vivo, po) is listed as 0.05 g/kg body weight.
In the case of `CC(F)(Cl)Cl` [Genesolv ® 2000 HFC-141b], the LD50 [2, 3] is given as over 5 g/kg body weight.
In the case of `FC(F)CC(F)(F)F` [Genesolv ® S-F, 1,1,1,3,3-pentafluoropropane], the “Sol. (solubility of water in the liquid)” value ([1]; parts per million by weight) is listed as 1600 ppm and the “LD50, cells marked "I"” value [2] is listed as over 200 I g/kg body weight.
For `FCC(F)(F)F` [Genetron ® HFC-134a], the “Sol. (solubility of water in the liquid)” value ([1]; in %) is listed as 0.11% and the “LD50, cells marked "I"” value [2] is listed as 62 I g/kg body weight.
In the case of `OCC(O)CO` [Glycerol], the LD50 ([2]; rat, in vivo, po) is listed as 13 g/kg body weight.
In the case of `FC(C(F)C(F)(F)C(F)(F)F)C(F)(F)F` (stereo not drawn) [HFC-4310mee], the “Sol. (solubility of water in the liquid)” value ([1]; parts per million by weight) is given as 400 ppm and the “LD50, cells marked "I"” value [2] is given as 11 I g/kg body weight.
For `CN1CCCC1=O` [N-methylpyrrolidone], the “Sol. (solubility of water in the liquid)” value ([1]; in %) is given as 100% and the LD50 [2, 3] is given as 4.15 g/kg body weight.
For `O=C(C(F)(F)C(F)(F)F)C(F)(C(F)(F)F)C(F)(F)F` [Novec ™ 1230, dodecafluoro-2-methylpentan-3-one], the “LD50, cells marked "I"” value [2] is listed as over 100 I g/kg body weight.
In the case of `COC(F)(F)C(F)(F)C(F)(F)F` [Novec ™ HFE-7000, 1-methoxyheptafluoropropane], the “Sol. (solubility of water in the liquid)” value ([1]; parts per million by weight) is listed as 60 ppm and the LD50 [2, 3] is listed as over 2 g/kg body weight.
For `CCOC(F)(F)C(F)(F)C(F)(F)C(F)(F)F` [Novec ™ HFE-7200, ethoxynonafluorobutane], the “Sol. (solubility of water in the liquid)” value ([1]; parts per million by weight) is given as 92 ppm and the LD50 [2, 3] is given as over 5 g/kg body weight.
For `CCOC(F)(C(F)(F)C(F)(F)C(F)(F)F)C(F)(C(F)(F)F)C(F)(F)F` (stereo not drawn) [Novec ™ HFE-7500, 2-trifluoromethyl-3-ethoxydodecafluorohexane], the LD50 [2, 3] is listed as over 2 g/kg body weight.
For `FC(F)(F)C(F)(F)C(F)(F)C(F)(F)C(F)(F)C(F)(F)F` [PF-5060 & PF-5060DL], the LD50 [2, 3] is given as over 5 g/kg body weight.
For `FC(F)(F)C(F)(F)C(F)(F)C(F)(F)C(F)(F)C(F)(F)F` [Perfluorohexane], the “Sol. (solubility of water in the liquid)” value ([1]; unit not given) is given as 0.03 g/100 g, the “Sol. (solubility of water in the liquid)” value ([1]; parts per million by weight) is given as 10 ppm and the LD50 [2, 3] is given as 5 g/kg body weight.
In the case of `O=S1(=O)CCCC1` [Sulfolane], the LD50 [2, 3] is given as 1.94 g/kg body weight.
For `C1OCOCO1` [Trioxane], the “Sol. (solubility of water in the liquid), in words” value [1] is listed as “soluble” and the LD50 [2, 3] is listed as 3.2 g/kg body weight.
For `S=C=S` [carbon disulfide], the “Sol. (solubility of water in the liquid)” value ([1]; in %) is listed as under 1% and the LD50 ([2]; rat, in vivo, po) is listed as 3.2 g/kg body weight.
In the case of `ClC(Cl)(Cl)Cl` [carbon tetrachloride], the “Sol. (solubility of water in the liquid)” value ([1]; unit not given) is listed as 0.05 g/100 g and the LD50 [2, 3] is listed as 2.3 g/kg body weight.
In the case of `CCOC(=O)C(=O)OCC` [diethyl oxalate], the LD50 ([2]; rat, in vivo, po) is given as 0.4 g/kg body weight.
For `COCCOCCO` [diethylene glycol methyl ether], the “Sol. (solubility of water in the liquid)” value ([1]; in %) is listed as 100%.
In the case of `OCCOCCO` [diethylene glycol], the LD50 [2, 3] is listed as 13 g/kg body weight.
For `c1ccc(Oc2ccccc2)cc1` [diphenyl ether], the LD50 [2, 3] is given as 3.37 g/kg body weight.
In the case of `O=C1OCCO1` [ethylene carbonate], the LD50 [2, 3] is given as 10 g/kg body weight.
In the case of `OCCOCc1ccccc1` [ethylene glycol monobenzyl ether], the “Sol. (solubility of water in the liquid)” value ([1]; unit not given) is listed as 4 g/100 g and the LD50 [2, 3] is listed as 1.19 g/kg body weight.
For `OCc1ccco1` [furfuryl alcohol], the LD50 ([2]; rat, in vivo, po) is listed as 0.275 g/kg body weight.
In the case of `O=C1CCCO1` [gamma-butyrolactone], the LD50 ([2]; rat, in vivo, po) is listed as 1.54 g/kg body weight.
In the case of `COC(=O)C(C)O` (stereo not drawn) [lactic acid, methyl ester], the “Sol. (solubility of water in the liquid), in words” value [1] is given as “decomp” and the LD50 [2, 3] is given as 2 g/kg body weight.
In the case of `CC(O)C(=O)O` (stereo not drawn) [lactic acid], the LD50 ([2]; rat, in vivo, po) is listed as 3.7, 3.5 g/kg body weight and the LD50 [2, 3] is listed as 3.7, 3.5 g/kg body weight.
For `ClCCl` [methylene chloride], the “Sol. (solubility of water in the liquid)” value ([1]; unit not given) is listed as 1.32 g/100 g and the LD50 [2, 3] is listed as 1.6 g/kg body weight.
For `Fc1cc(F)c(F)c(F)c1F` [pentafluorobenzene], the LD50 ([2]; rat, in vivo, po) is given as 2 g/kg body weight.
In the case of `OCC(F)(F)C(F)(F)F` [pentafluoropropyl alcohol], the “Sol. (solubility of water in the liquid), in words” value [1] is given as “soluble” and the LD50 [2, 3] is given as 1 g/kg body weight.
In the case of `CC1COC(=O)O1` (stereo not drawn) [propylene carbonate], the “Sol. (solubility of water in the liquid)” value ([1]; in %) is given as 23% and the LD50 [2, 3] is given as 29 g/kg body weight.
In the case of `CC(O)CO` (stereo not drawn) [propylene glycol], the LD50 [2, 3] is given as 22 g/kg body weight.
In the case of “methoxynonafluorobutane [Novec ™ HFE-7100]”, the “Sol. (solubility of water in the liquid)” value ([1]; parts per million by weight) is given as 95 ppm and the LD50 [2, 3] is given as over 5 g/kg body weight.
For “tetrahydrofurfuryl alcohol polyethyleneglycol ether [Glycofurol]”, the “Sol. (solubility of water in the liquid)” value ([1]; in %) is listed as over 50% and the LD50 [2, 3] is listed as 7.8 g/kg body weight.
In the case of trimethylene glycol, the LD50 ([2]; rat, in vivo, po) is given as 4.77 g/kg body weight.
